13 compounds from patent US20250215012A1, “IKZF2 DEGRADERS AND USES THEREOF” (REGENTS OF THE UNIVERSITY OF MICHIGAN, priority 2022, published 2025) can be followed below.

One test has as its target IKZF1 (Homo sapiens (Human), UniProt Q13422+Q96SW2). The test is described as follows: IKZF1 HiBit Assay (HEK293T Flp-in-HiBiT-IKZF1 stable cell line). It counts as cell-based. Particulars: for DC50: read-out: IKZF1 HiBit degradation DC50; for Dmax: HEK-293T, read-out: IKZF1 HiBit degradation Dmax. Summed up: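 HEK293T Flp-in cells with CRISPR-inserted N-terminal HiBiT tag treated 6 h with 11-point threefold dilutions (0.1% DMSO). Nano-Glo HiBiT lytic luminescence normalised to DMSO gave the 50%-degradation concentration; Dmax taken as the luminescence range from highest to lowest concentration.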

Test [1] has as its target His tagged CRBN+DDB−DLS7+CXU4 (Homo sapiens (Human), UniProt Q96SW2). Nature of the test: IC50 Measurements for Binding to CRBN/DDBI (HTRF). Particulars: Cy5-labeled Thalidomide probe, one hour incubation.
Test [2] has as its target IKZF2 (Homo sapiens (Human), UniProt Q9UKS7). Nature of the test: IKZF2 FACS Assay (Jurkat cells). Type of test: cell-based. Particulars: Jurkat cells, 24 hrs; read-out: IKZF2 FACS degradation DC50. The protocol: (§1) Jurkat cells (ATCC, Cat […]) were cultured in RPMI1640+10% FBS+1% P/S. Cells were treated at desired compound concentrations (0.05 to 10 μM) and DMSO as vehicle control for 24 hrs.

The target of test [3] is T1, IKZF2 (Homo sapiens (Human), UniProt Q96SW2+Q9UKS7). The test is described as follows: IKZF2 FACS Assay (Jurkat cells). It counts as cell-based. Particulars: read-out: IKZF2 FACS degradation Dmax. The method, then: as §1
For test [4], the target named is T1, IKZF2. Nature of the test: IKZF2 HiBit Assay (HEK293T Flp-in-HiBiT cells). Particulars: for DC50: read-out: IKZF2 HiBit degradation DC50; for Dmax: HEK-293T, read-out: IKZF2 HiBit degradation Dmax. Type of test: cell-based. The essentials:
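HEK293T Flp-in cells carrying CRISPR-inserted N-terminal HiBiT tag at the endogenous IKZF2 locus were treated with an 11-point, 3-fold dilution from 1 mM (stock) for 6 hrs; final DMSO 0.1%. HiBiT luminescence was detected after lysis with LgBiT/substrate reagent. DMSO-normalized curves gave 50% degradation concentration and Dmax.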

In test [5] the target is T1, IKZF2. Nature of the test: IKZF2 HiBiT Assay (Jurkat-IKZF2-HiBiT cell line). It counts as cell-based. Particulars: Jurkat-IKZF2-HiBiT cells, 24 hours; for DC50: read-out: HiBit assay degradation analysis DC50; for Dmax: read-out: HiBit assay degradation analysis Dmax. Summed up: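 Jurkat cells carrying HiBiT-tagged IKZF2 were exposed to serially diluted compound for 24 h at 37 °C. Remaining IKZF2 was measured by Nano-Glo HiBiT lytic luminescence after 10-20 min at room temperature. Signal was normalized to DMSO, and IC50 came from a four-parameter variable-slope fit.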

Test [6] deals with GST-tagged wild-type human CRBN protein (Homo sapiens (Human), UniProt Q96SW2). Nature of the test: Cereblon Binding Assay (Cisbio Cereblon Binding Kit, TR-FRET). Particulars: about 3 hours at room temperature. The protocol:
The binding to cereblon (CRBN) is determined using the Cereblon Binding Kit (Cisbio, #64BDCRBNPEG) following the manufacturer's instruction. Briefly, serially diluted compounds are incubated with GST-tagged wild-type human CRBN protein, XL665-labelled Thalidomide and Europium Cryptate labelled GST antibody.
The binding to cereblon (CRBN) was determined using the Cereblon Binding Kit (Cisbio, #64BDCRBNPEG) following the manufacturer's instruction. Briefly, serially diluted compounds were incubated with GST-tagged wild-type human CRBN protein, XL665-labelled Thalidomide and Europium Cryptate labelled GST antibody at room temperature for about 3 hours.

Where [7] appears, read: HEK293T Flp-in-HiBiT-IKZF1 cells, 6 hrs.
[8] abbreviates: HEK293T Flp-in-HiBiT cells, 6 hrs.

Where two headings read alike, the source gives them in different places.

Sequence of IKZF1 (Q13422 whole entry): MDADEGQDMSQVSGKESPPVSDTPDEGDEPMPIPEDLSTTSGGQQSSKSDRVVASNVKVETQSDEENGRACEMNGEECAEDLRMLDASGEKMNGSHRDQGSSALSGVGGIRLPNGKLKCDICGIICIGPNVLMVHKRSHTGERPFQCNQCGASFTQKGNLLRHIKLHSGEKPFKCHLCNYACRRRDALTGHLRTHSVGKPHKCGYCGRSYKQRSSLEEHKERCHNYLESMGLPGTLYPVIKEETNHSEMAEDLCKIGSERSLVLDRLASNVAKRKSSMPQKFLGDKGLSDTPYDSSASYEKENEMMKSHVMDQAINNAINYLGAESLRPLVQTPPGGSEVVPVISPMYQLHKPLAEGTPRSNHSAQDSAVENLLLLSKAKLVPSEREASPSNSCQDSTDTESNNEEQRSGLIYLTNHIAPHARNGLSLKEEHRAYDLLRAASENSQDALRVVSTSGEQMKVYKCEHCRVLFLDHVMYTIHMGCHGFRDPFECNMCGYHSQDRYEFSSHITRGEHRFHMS
Sequence of IKZF1 (Q96SW2 whole entry): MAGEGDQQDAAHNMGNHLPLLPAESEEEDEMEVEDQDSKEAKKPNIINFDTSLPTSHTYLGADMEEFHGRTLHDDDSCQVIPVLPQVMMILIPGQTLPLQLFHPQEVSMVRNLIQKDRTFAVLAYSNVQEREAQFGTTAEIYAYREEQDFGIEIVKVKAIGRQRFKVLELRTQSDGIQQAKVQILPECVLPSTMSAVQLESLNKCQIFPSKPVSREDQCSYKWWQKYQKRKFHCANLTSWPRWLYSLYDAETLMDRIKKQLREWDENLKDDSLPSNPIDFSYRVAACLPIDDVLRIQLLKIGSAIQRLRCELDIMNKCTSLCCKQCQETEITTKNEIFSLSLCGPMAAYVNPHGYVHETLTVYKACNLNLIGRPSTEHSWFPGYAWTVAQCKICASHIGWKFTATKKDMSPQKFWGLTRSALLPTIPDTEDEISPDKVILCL
Sequence of IKZF1 (Q16531 whole entry partner): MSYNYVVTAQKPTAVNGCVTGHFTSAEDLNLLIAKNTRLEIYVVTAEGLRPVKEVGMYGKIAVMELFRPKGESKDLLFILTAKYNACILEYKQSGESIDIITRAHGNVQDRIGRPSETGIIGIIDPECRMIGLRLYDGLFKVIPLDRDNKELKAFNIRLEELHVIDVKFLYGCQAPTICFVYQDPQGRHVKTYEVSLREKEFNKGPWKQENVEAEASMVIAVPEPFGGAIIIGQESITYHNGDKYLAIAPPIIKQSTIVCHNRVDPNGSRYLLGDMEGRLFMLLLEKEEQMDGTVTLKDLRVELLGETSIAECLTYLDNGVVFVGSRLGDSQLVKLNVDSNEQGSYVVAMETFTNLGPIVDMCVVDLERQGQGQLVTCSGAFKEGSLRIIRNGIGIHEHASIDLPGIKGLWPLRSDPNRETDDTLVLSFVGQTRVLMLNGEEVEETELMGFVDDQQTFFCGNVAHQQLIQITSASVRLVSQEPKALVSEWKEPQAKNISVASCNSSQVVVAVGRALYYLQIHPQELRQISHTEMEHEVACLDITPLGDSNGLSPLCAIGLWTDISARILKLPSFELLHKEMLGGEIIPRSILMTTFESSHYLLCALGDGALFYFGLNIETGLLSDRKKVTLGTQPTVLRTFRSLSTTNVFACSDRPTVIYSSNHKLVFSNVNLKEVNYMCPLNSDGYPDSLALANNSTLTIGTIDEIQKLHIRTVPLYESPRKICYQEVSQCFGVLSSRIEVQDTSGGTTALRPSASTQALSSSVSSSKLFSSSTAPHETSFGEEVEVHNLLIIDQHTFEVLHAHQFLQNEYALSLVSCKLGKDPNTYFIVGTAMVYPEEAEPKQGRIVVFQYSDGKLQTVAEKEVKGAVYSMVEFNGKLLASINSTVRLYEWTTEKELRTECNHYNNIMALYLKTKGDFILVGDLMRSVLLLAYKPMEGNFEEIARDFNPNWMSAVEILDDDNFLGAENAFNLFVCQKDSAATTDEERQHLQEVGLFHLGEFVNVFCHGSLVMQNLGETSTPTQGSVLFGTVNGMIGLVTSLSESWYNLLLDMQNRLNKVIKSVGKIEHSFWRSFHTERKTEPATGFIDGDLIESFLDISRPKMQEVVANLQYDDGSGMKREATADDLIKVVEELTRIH
Sequence of IKZF2 (Homo sapiens (Human), UniProt Q9UKS7) (Q9UKS7 whole entry): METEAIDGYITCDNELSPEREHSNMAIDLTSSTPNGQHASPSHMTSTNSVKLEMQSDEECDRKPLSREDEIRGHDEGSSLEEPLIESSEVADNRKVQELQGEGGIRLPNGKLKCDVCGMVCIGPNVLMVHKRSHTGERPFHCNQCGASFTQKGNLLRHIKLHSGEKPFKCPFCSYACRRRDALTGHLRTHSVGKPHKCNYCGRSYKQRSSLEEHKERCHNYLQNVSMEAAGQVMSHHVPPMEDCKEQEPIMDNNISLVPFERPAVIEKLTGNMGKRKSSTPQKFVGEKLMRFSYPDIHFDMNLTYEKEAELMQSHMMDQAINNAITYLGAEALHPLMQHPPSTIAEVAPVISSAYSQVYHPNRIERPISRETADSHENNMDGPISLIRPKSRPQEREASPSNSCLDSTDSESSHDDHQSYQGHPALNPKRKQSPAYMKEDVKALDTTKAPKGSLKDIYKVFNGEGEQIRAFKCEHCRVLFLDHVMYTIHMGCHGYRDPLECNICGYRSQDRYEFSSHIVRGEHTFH
Sequence of IKZF2 (Homo sapiens (Human), UniProt Q9UKS7) (Q96SW2 whole entry, further chain): as the sequence (Q96SW2 whole entry) above
Sequence of IKZF2 (Homo sapiens (Human), UniProt Q9UKS7) (Q16531 whole entry partner): as the sequence (Q16531 whole entry partner) above
T1 sequence (Q9UKS7 whole entry): as the sequence (Q9UKS7 whole entry) above
T1 sequence (Q96SW2 whole entry): as the sequence (Q96SW2 whole entry) above
T1 sequence (Q16531 whole entry partner): as the sequence (Q16531 whole entry partner) above
Sequence of His tagged CRBN+DDB−DLS7+CXU4 (Q96SW2 whole entry): as the sequence (Q96SW2 whole entry) above
Sequence of His tagged CRBN+DDB−DLS7+CXU4 (Q16531 whole entry partner): as the sequence (Q16531 whole entry partner) above
Sequence of GST-tagged wild-type human CRBN protein (Q96SW2 whole entry): as the sequence (Q96SW2 whole entry) above

For the compound `O=C1CC[C@H](N2Cc3c(ccc4c3OCC43CCN(Cc4cccc(-c5cnn(C6COC6)c5)c4)CC3(F)F)C2=O)C(=O)N1` (stereo partly drawn) [Compound B32, (3S)-3-(3′,3′-difluoro-1′-(3-(1-(oxetan-3-yl)-1H-pyrazol-4-yl)benzyl)-6-oxo-6,8-dihydro-2H,7H-spiro[furo[2,3-e]isoindole-3,4′-piperidin]-7-yl)piperidine-2,6-dione], the values for the DC50 on IKZF1 (setting [7]), on IKZF2 [2] and at IKZF2 [4] (setting [8]) were greater than 1000 nM, less than 10 nM and less than 1 nM, respectively. Besides, the greatest degradation seen (Dmax) at IKZF1 (setting [7]) was less than 20%; on IKZF2 [3] (Jurkat cells, 24 hrs), 40 to 60%; at IKZF2 [4] (setting [8]), 60 to 80%. In addition, the IC50 in test [1] fell in the range of 100 to 500 nM.
Regarding `Cn1cc(-c2cccc(CN3CCC4(COc5c4ccc4c5CN(C5CCC(=O)NC5=O)C4=O)C(F)(F)C3)c2)cn1` (stereo not drawn) [Compound B26, 3-(3′,3′-difluoro-1′-(3-(1-methyl-1H-pyrazol-4-yl)benzyl)-6-oxo-6,8-dihydro-2H,7H-spiro[furo[2,3-e]isoindole-3,4′-piperidin]-7-yl)piperidine-2,6-dione], the results for the DC50 at IKZF1 (setting [7]), on IKZF2 [2] and at IKZF2 [4] (setting [8]) were greater than 1000 nM, less than 10 nM and 1 to 10 nM, respectively. The maximal degradation (Dmax) is less than 20% at IKZF1 (setting [7]); greater than 60% on IKZF2 [3] (Jurkat cells, 24 hrs); greater than 80% at IKZF2 [4] (setting [8]).
In the case of `Cn1cc(-c2cccc(CN3CCC4(CC3)COc3c4ccc4c3CN([C@@H]3CCC(=O)NC3=O)C4=O)c2)cn1` [Compound B14, (R)-3-(1′-(3-(1-methyl-1H-pyrazol-4-yl)benzyl)-6-oxo-6,8-dihydro-2H,7H-spiro[furo[2,3-e]isoindole-3,4′-piperidin]-7-yl)piperidine-2,6-dione], the DC50 is greater than 1000 nM on IKZF1 (setting [7]), greater than 10 nM on IKZF2 [2] and 1 to 10 nM at IKZF2 [4] (setting [8]). The Dmax is less than 20% at IKZF1, 40 to 60% on IKZF2 [3] (Jurkat) and greater than 80% at IKZF2 [4]. This compound displayed an IC50 in test [1] of 1000 to 5000 nM.
For `O=C1CC[C@H](N2Cc3c(ccc4c3OC[C@]43CCN(Cc4cccc(-c5cnn(C6COC6)c5)c4)CC3(F)F)C2=O)C(=O)N1` [Compound B53, (S)-3-((S)-3′,3′-difluoro-1′-(3-(1-(oxetan-3-yl)-1H-pyrazol-4-yl)benzyl)-6-oxo-6,8-dihydro-2H,7H-spiro[furo[2,3-e]isoindole-3,4′-piperidin]-7-yl)piperidine-2,6-dione], the DC50 at IKZF1 (setting [7]) is greater than 1000 nM; at IKZF2 [2] it was less than 10 nM; at IKZF2 [4] (setting [8]), less than 1 nM. Also, the Dmax on IKZF1 (setting [7]) was less than 20%; at IKZF2 [3] (Jurkat cells, 24 hrs), 40 to 60%; on IKZF2 [4] (setting [8]), greater than 80%.
Turning to `Cn1cc(-c2cccc(CN3CC[C@]4(COc5c4ccc4c5CN([C@H]5CCC(=O)NC5=O)C4=O)C(F)(F)C3)c2)cn1` [Compound B51, (S)-3-((S)-3′,3′-difluoro-1′-(3-(1-methyl-1H-pyrazol-4-yl)benzyl)-6-oxo-6,8-dihydro-2H,7H-spiro[furo[2,3-e]isoindole-3,4′-piperidin]-7-yl) piperidine-2,6-dione], the DC50 on IKZF1 (setting [7]) was greater than 1000 nM; at IKZF2 [2], less than 10 nM; at IKZF2 [4] (setting [8]), less than 1 nM. In addition, the Dmax at IKZF1 (setting [7]) was less than 20%; on IKZF2 [3] (Jurkat cells, 24 hrs), greater than 60%; at IKZF2 [4] (setting [8]) it was 60 to 80%. The compound also displayed an IC50 in test [1] of less than 100 nM.
Take `Cn1cc(-c2cccc(CN3CCC4(CC3)COc3c5c(cc(F)c34)C(=O)N([C@H]3CCC(=O)NC3=O)C5)c2)cn1` [Compound B55, (S)-3-(4-fluoro-1′-(3-(1-methyl-1H-pyrazol-4-yl)benzyl)-6-oxo-6,8-dihydro-2H,7H-spiro[furo[2,3-e]isoindole-3,4′-piperidin]-7-yl)piperidine-2,6-dione]: the DC50 at IKZF1 (setting [7]) is greater than 1000 nM; on IKZF2 [2], less than 10 nM; on IKZF2 [4] (setting [8]) it was less than 1 nM. The Dmax is less than 20% at IKZF1 (setting [7]); 40 to 60% at IKZF2 [3] (Jurkat cells, 24 hrs); greater than 80% at IKZF2 [4] (setting [8]).
As to `N#Cc1ccc(-n2cc(CN3CCC4(COc5c4ccc4c5CN([C@H]5CCC(=O)NC5=O)C4=O)C(F)(F)C3)cn2)cc1` (stereo partly drawn) [Compound B27, 4-(4-((7-((S)-2,6-dioxopiperidin-3-yl)-3′,3′-difluoro-6-oxo-7,8-dihydro-2H,6H-spiro[furo[2,3-e]isoindole-3,4′-piperidin]-1′-yl)methyl)-1H-pyrazol-1-yl)benzonitrile], the values for the DC50 on IKZF1 (setting [7]), at IKZF2 [2] and on IKZF2 [4] (setting [8]) were greater than 1000 nM, greater than 10 nM and 1 to 10 nM, respectively. Also, the maximal degradation (Dmax) on IKZF1 (setting [7]) is less than 20%; on IKZF2 [3] (Jurkat cells, 24 hrs) it was less than 40%; at IKZF2 [4] (setting [8]), 60 to 80%.
On to `Cc1cc(C)cc(CN2CCC3(CC2)COc2c3ccc3c2CN(C2CCC(=O)NC2=O)C3=O)c1` (stereo not drawn) [Compound A31, 3-(1′-(3,5-dimethylbenzyl)-6-oxo-6,8-dihydro-2H,7H-spiro[furo[2,3-e]isoindole-3,4′-piperidin]-7-yl)piperidine-2,6-dione], for which, on IKZF2 [5], the DC50 lay within 200 to 500 nM and the Dmax was 60 to 80%. In test [6], the IC50 lay within 100 to 1000 nM.
The matching figures for `O=C1CCC(N2Cc3c(ccc4c3OCC43CCN(Cc4cccc(Cn5cccn5)c4)CC3)C2=O)C(=O)N1` (stereo not drawn) [Compound A126, 3-(1′-(3-((1H-pyrazol-1-yl)methyl)benzyl)-6-oxo-6,8-dihydro-2H,7H-spiro[furo[2,3-e]isoindole-3,4′-piperidin]-7-yl)piperidine-2,6-dione]: 200 to 500 nM, 40 to 60% and 100 to 1000 nM.
The matching figures for `O=C1CCC(N2Cc3c(ccc4c3OCC43CCN(Cc4cccc5ccccc45)CC3)C2=O)C(=O)N1` (stereo not drawn) [Compound A27, 3-(1′-(naphthalen-1-ylmethyl)-6-oxo-6,8-dihydro-2H,7H-spiro[furo[2,3-e]isoindole-3,4′-piperidin]-7-yl)piperidine-2,6-dione]: less than 50 nM, greater than 80% and 100 to 1000 nM.
Taken in the same sequence, the figures for `O=C1CCC(N2Cc3c(ccc4c3OCC43CCN(Cc4cccc(-n5cncn5)c4)CC3)C2=O)C(=O)N1` (stereo not drawn) [Compound A124, 3-(1′-(3-(1H-1,2,4-triazol-1-yl)benzyl)-6-oxo-6,8-dihydro-2H,7H-spiro[furo[2,3-e]isoindole-3,4′-piperidin]-7-yl)piperidine-2,6-dione] were 200 to 500 nM, 40 to 60% and 100 to 1000 nM.
Regarding `O=C1CC[C@H](N2Cc3c(ccc4c3OCC43CCN(Cc4cnn(CC5CCOCC5)c4)CC3(F)F)C2=O)C(=O)N1` (stereo partly drawn) [Compound B46, (3S)-3-(3′,3′-difluoro-6-oxo-1′-((1-((tetrahydro-2H-pyran-4-yl)methyl)-1H-pyrazol-4-yl)methyl)-6,8-dihydro-2H,7H-spiro[furo[2,3-e]isoindole-3,4′-piperidin]-7-yl)piperidine-2,6-dione], the DC50 is greater than 1000 nM at IKZF1 (setting [7]), less than 10 nM on IKZF2 [2] and 1 to 10 nM on IKZF2 [4] (setting [8]). The Dmax was less than 20% on IKZF1 (setting [7]); 40 to 60% on IKZF2 [3] (Jurkat cells, 24 hrs); 60 to 80% at IKZF2 [4] (setting [8]).
Regarding `Cc1ccc(CN2CCC3(CCOc4c3ccc3c4CN(C4CCC(=O)NC4=O)C3=O)CC2)cc1` (stereo not drawn) [Compound A12, 3-(1-(4-methylbenzyl)-7′-oxo-2′,3′,7′,9′-tetrahydro-8′H-spiro[piperidine-4,4′-pyrano[2,3-e]isoindol]-8′-yl)piperidine-2,6-dione], at IKZF2 [5], the DC50 was greater than 500 nM and the Dmax was less than 40%. In test [6], the IC50 lay in the range of 10 to 100 nM.
